Assays:
InsP3Kinase-A [1] = biological target: T1, InsP3Kinase-A (Homo sapiens, UniProt P23677); experiment: coupled PK/LDH assay with Lineweaver-Burk; thermal shift +[…] °C on wt; type: biochemical; set-up: gene ITPKA; full-length, tag-less
InsP3Kinase-A [2] = biological target: T2, InsP3Kinase-A (Homo sapiens, UniProt P23677, K264Q); experiment: activity of purified mutant with and without BIP-[…] to […]); type: biochemical
T2 construct: gene ITPKA; full-length

InsP3Kinase-A [3] = biological target: T1, InsP3Kinase-A; experiment: biochemical; set-up: gene ITPKA; full-length GST-InsP3Kinase-A; settings: ADP-Glo, 5 uM compound, normalized to positive control
Procedure: For the inhibitor screening, the compounds were diluted in dimethylsulfoxide (DMSO, Sigma), and a final compound concentration of 5 µM was applied to each well. Each measurement was performed in triplicates. As controls, a positive control (enzyme solution with InsP3Kinase and without compounds, but with DMSO), a negative control (enzyme buffer without InsP3Kinase), and an inhibitor control (quercetin and BIP-4) were applied. In each well, there was a final buffer concentration of 20 mM HEPES pH 7.5, 5 mM MgCl2, 30 mM KCl, 1 mM DTT, 0.5 mM ATP, and an enzyme concentration between 20 nM and 55 nM was applied. […] Then, 10 µl of ADP-Glo reagent was added (depleting remaining ATP and stopping InsP3Kinase enzymatic reaction) and incubated for 20 min at room temperature (RT). […] For luminescent measurement, a TECAN infinite 200 plate reader was used with an integration time of 1000 ms at a temperature of 30°C. For this screen, all measurements were performed in triplicates, three-times using the ADP Glo assay.

InsP3Kinase-A [4] = biological target: T1, InsP3Kinase-A; experiment: biochemical; set-up: gene ITPKA; full-length GST-InsP3Kinase-A; settings: ADP-Glo, 5 uM compound, normalized to positive control; remark: listed apart in the source
Procedure: For the inhibitor screening, the compounds were diluted in dimethylsulfoxide (DMSO, Sigma), and a final compound concentration of 5 µM was applied to each well. Each measurement was performed in triplicates. […] In each well, there was a final buffer concentration of 20 mM HEPES pH 7.5, 5 mM MgCl2, 30 mM KCl, 1 mM DTT, 0.5 mM ATP, and an enzyme concentration between 20 nM and 55 nM was applied. […] Then, 10 µl of ADP-Glo reagent was added (depleting remaining ATP and stopping InsP3Kinase enzymatic reaction) and incubated for 20 min at room temperature (RT). Next, 10 µl kinase detection reagent (converting remaining ADP to ATP and containing luciferase, which uses ATP as substrate) was added, and incubation was continued for 15 min at RT. For luminescent measurement, a TECAN infinite 200 plate reader was used with an integration time of 1000 ms at a temperature of 30°C. For this screen, all measurements were performed in triplicates, three-times using the ADP Glo assay.

T1 sequence (P23677 whole entry): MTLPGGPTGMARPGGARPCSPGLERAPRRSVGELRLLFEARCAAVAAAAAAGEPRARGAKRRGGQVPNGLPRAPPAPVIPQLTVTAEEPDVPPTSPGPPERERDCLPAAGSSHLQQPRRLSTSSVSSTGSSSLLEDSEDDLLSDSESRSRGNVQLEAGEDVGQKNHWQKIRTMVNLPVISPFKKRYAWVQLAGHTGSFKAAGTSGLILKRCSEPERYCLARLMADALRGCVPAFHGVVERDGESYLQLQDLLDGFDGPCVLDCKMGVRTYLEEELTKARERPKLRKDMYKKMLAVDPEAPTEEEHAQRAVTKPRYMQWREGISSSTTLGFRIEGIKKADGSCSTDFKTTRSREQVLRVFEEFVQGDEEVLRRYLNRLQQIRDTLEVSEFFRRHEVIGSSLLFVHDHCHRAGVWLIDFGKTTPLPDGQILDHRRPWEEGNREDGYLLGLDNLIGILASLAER
T2 sequence (P23677 whole entry K264Q): as the sequence (P23677 whole entry) above, with K264Q counted along it

Row | inhibition at 5 µM (InsP3Kinase-A [3]) [%] | Structure (SMILES) | other results
1 | 31.4 | CCOc1ccc(N2C(=O)c3cc([N+](=O)[O-])cc4cc([N+](=O)[O-])cc(c34)C2=O)cc1 [compound 27, 27] | 
2 | 33.4 | CNS(=O)(=O)c1ccc(N2C(=O)c3cc([N+](=O)[O-])cc4cc([N+](=O)[O-])cc(c34)C2=O)cc1 [compound 31, 31] | 
3 | 41.6 | CCN(CC)S(=O)(=O)c1ccc(N2C(=O)c3cc([N+](=O)[O-])cc4cc([N+](=O)[O-])cc(c34)C2=O)cc1 [compound 33, 33] | 

More lines, now with the values behind:

Row | Structure (SMILES) | inhibition at 5 µM (InsP3Kinase-A [3]) [%] | other results
4 | Cc1nn(-c2ccc([N+](=O)[O-])cc2)c(C)c1N1C(=O)c2cc([N+](=O)[O-])cc3cc([N+](=O)[O-])cc(c23)C1=O [BIP-4, 2-[3,5-dimethyl-1-(4-nitrophenyl)-1H-pyrazol-4-yl]-5,8-dinitro-1H-benzo[de]isoquinoline-1,3(2H)-dione] |  | Ki (InsP3Kinase-A [1]): 437 nM; Enzyme activity + BIP4 in % (InsP3Kinase-A [2]): 18.797 % enzyme activity with BIP-4
5 | Cc1ccc(N2C(=O)c3cc([N+](=O)[O-])cc4cc([N+](=O)[O-])cc(c34)C2=O)c(C)c1 [compound 19, 19] | 36.2 | 
6 | O=C1c2cc([N+](=O)[O-])cc3cc([N+](=O)[O-])cc(c23)C(=O)N1c1ccccc1Cl [compound 28, 28] | 19.7 | 
7 | O=C1c2cc([N+](=O)[O-])cc3cc([N+](=O)[O-])cc(c23)C(=O)N1c1ccc(Br)cn1 [compound 78, 78] |  | inhibition at 5 µM (InsP3Kinase-A [4]): 1.6%

From paper PMC8292763, “Mechanism of BIP-4 mediated inhibition of InsP3Kinase-A” (Bioscience Reports, 2021)
